Assay results: ChEMBL document CHEMBL4725303, “New V1a receptor antagonist. Part 1. Synthesis and SAR development of urea derivatives” (Bioorg Med Chem Lett, 2020)
Values belong to the compound of their own block, whether it stands above or below them.

Legend:
[1] = biological target: T1, Vasopressin V1a receptor (Homo sapiens, UniProt P37288); experiment: Displacement of [3H]AVP from human V1a receptor expressed in […] cells assessed as dissociation constant by radioligand binding assay; format: cell-based, 1321N1
Target sequence in this assay (P37288 whole entry): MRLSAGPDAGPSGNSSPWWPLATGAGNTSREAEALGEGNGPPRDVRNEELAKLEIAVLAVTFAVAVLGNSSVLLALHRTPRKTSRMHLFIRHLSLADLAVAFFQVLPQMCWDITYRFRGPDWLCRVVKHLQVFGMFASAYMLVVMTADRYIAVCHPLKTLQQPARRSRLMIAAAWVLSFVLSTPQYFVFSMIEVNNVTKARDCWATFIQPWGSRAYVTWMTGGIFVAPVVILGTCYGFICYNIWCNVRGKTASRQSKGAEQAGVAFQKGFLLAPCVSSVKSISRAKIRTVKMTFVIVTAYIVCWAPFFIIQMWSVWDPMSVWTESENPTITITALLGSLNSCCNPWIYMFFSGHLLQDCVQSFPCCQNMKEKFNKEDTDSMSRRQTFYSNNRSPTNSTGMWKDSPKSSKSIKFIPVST

[2] = biological target: T1, Vasopressin V1a receptor; experiment: Antagonist activity at human V1a receptor expressed in human 1321N1 cells assessed as decrease in Arg8-vasopressin-stimulated calcium flux by fluorometric calcium assay; format: functional, cell-based
Target sequence in this assay (P37288 whole entry): as above

[3] = Metabolic stability in NMRI mouse liver microsomes assessed as intrinsic clearance at 1 uM in presence of NADPH by HPLC-UV analysis; format: ADME, Microsome; settings: read-out: CLH
[4] = Apparent permeability across apical to basolateral side in human Caco-2 cells at 1 uM by HPLC-UV or UHPLC-MS/MS analysis; format: ADME, cell-based
[5] = Metabolic stability in Wistar rat liver microsomes assessed as intrinsic clearance at 1 uM in presence of NADPH by HPLC-UV analysis; format: ADME, Microsome; settings: read-out: CLH
[6] = Metabolic stability in human liver microsomes assessed as intrinsic clearance at 1 uM in presence of NADPH by HPLC-UV analysis; format: ADME, Microsome; settings: read-out: CLH
[7] = biological target: T1, Vasopressin V1a receptor; experiment: Antagonist activity at human V1a receptor expressed in human 1321N1 cells assessed as decrease in Arg8-vasopressin-stimulated calcium flux at 10 uM by fluorometric calcium assay relative to control; format: functional, cell-based
Target sequence in this assay (P37288 whole entry, looked up): as the sequence (P37288 whole entry) above

[8] = Efflux ratio of Apparent permeability across apical to basolateral side in human Caco-2 cells at 10 uM by HPLC-UV or UHPLC-MS/MS analysis; format: ADME, cell-based
[9] = Apparent permeability across apical to basolateral side in human Caco-2 cells at 10 uM by HPLC-UV or UHPLC-MS/MS analysis; format: ADME, cell-based

Compound: Cc1ccccc1C1CCN(C(=O)N2CCNc3cc(Cl)ccc32)CC1
IC50 [2]: 0.38 µM
Ki [1]: 0.003 µM

Compound: Cc1ccccc1N1CCN(C(=O)C2CN(C(=O)C3CCCC3)Cc3cc(Cl)ccc32)CC1 (racemic)
microsomal CLint at 1 µM [3]: 341 µL/min/mg
Papp A→B at 1 µM [4]: 43 nm/s
IC50 [2]: 0.035 µM
Ki [1]: 0.006 µM
microsomal CLint at 1 µM [5]: 179 µL/min/mg
microsomal CLint at 1 µM [6]: 188 µL/min/mg

Compound: O=C(N1CCC(N2CCCCC2)CC1)N1CCNc2cc(Cl)ccc21
inhibition [7]: 11%

Compound: O=C(N1CCN(c2ccccn2)CC1)N1CCNc2cc(Cl)ccc21
IC50 [2]: 6.8 µM
Ki [1]: 0.16 µM

Compound: O=C(N1CCN(c2ncccc2Cl)CC1)N1CCNc2cc(Cl)ccc21
IC50 [2]: 0.17 µM
Ki [1]: 0.006 µM

Compound: O=C(N1CCN(Cc2ccccc2)CC1)N1CCNc2cc(Cl)ccc21
IC50 [2]: 8.3 µM
Ki [1]: 0.164 µM

Compound: Cc1ccccc1N1CCN(C(=O)C2CN(C(=O)C3CCCCC3)Cc3cc(Cl)ccc32)CC1 (racemic)
IC50 [2]: 0.04 µM
Ki [1]: 0.005 µM

Compound: Cc1ccccc1N1CCN(C(=O)N2CCNc3ccccc32)CC1
IC50 [2]: 2.8 µM
Ki [1]: 0.07 µM

Compound: Cc1cccnc1N1CCN(C(=O)N2CCNc3cc(Cl)ccc32)[C@H](C)C1
IC50 [2]: 0.75 µM
Ki [1]: 0.07 µM

Compound: O=C(N1CCC2(CC1)OCc1ccccc12)N1CCNc2cc(Cl)ccc21
IC50 [2]: 0.28 µM
Ki [1]: 0.004 µM

Compound: Cc1cccnc1N1CCN(C(=O)N2CCNc3cc(Cl)ccc32)CC1
IC50 [2]: 0.45 µM
Ki [1]: 0.002 µM

Compound: CN1CCN(C(=O)N2CCN(c3ncccc3Cl)CC2)c2ccc(Cl)cc21
IC50 [2]: 0.055 µM
Ki [1]: 0.002 µM

Compound: CN(C)CCn1cc(C(=O)N2CCC3(CC2)OCc2ccccc23)c2ccc(Cl)cc21 [RO-5028442]
microsomal CLint at 1 µM [3]: 341 µL/min/mg
efflux ratio at 10 µM [8]: 0.9
IC50 [2]: 0.002 µM
Ki [1]: 0.0055 µM
microsomal CLint at 1 µM [5]: 130 µL/min/mg
Papp A→B at 10 µM [9]: 150 nm/s
microsomal CLint at 1 µM [6]: 20 µL/min/mg

Compound: C[C@H](NC(=O)[C@@H](CC(=O)N1CCC(N2CCCCC2)CC1)N1C(=O)[C@@H](N2C(=O)OC[C@@H]2c2ccccc2)[C@H]1/C=C/c1ccccc1)c1ccccc1
microsomal CLint at 1 µM [3]: 199 µL/min/mg
microsomal CLint at 1 µM [5]: 31 µL/min/mg
Papp A→B at 10 µM [9]: 47 nm/s
microsomal CLint at 1 µM [6]: 156 µL/min/mg

Compound: CN1CCN(C(=O)C2CCN(c3ccccn3)CC2)c2ccc(Cl)cc21
microsomal CLint at 1 µM [3]: 132 µL/min/mg
efflux ratio at 10 µM [8]: 0.7
IC50 [2]: 0.26 µM
Ki [1]: 0.014 µM
microsomal CLint at 1 µM [5]: 404 µL/min/mg
Papp A→B at 10 µM [9]: 480 nm/s
microsomal CLint at 1 µM [6]: 80 µL/min/mg

Compound: Cc1ccccc1N1CCN(C(=O)C2CN(C(=O)C3CCCCC3)Cc3cc(Cl)ccc32)CC1 (single isomer, unassigned; (+))
IC50 [2]: 0.021 µM
Ki [1]: 0.004 µM

Compound: Cc1ccccc1N1CCN(C(=O)C2CN(C(=O)C3CCCCC3)Cc3cc(Cl)ccc32)CC1 (stereo in doubt; (-)-47)
IC50 [2]: 0.28 µM
Ki [1]: 0.04 µM

Compound: Cc1ccccc1N1CCN(C(=O)c2ccc(Cl)c(NC(=O)c3cccs3)c2)CC1
IC50 [2]: 0.8 µM
Ki [1]: 0.17 µM

Compound: C[C@H]1CN(C(=O)N2CCNc3cc(Cl)ccc32)CCN1c1ccccn1
IC50 [2]: 1 µM
Ki [1]: 0.062 µM

Compound: C[C@@H]1CN(C(=O)N2CCNc3cc(Cl)ccc32)CCN1c1ccccn1
Ki [1]: 0.31 µM
inhibition ([7]; filed as antagonist): 57%

The next lines start with the values.

Ki [1]: 0.023 µM
Compound: Cc1ccccc1N1CCN(C(=O)N2CN(C(=O)C3(c4ccc(F)cc4)CC3)Cc3cc(Cl)ccc32)CC1

Ki [1]: 0.08 µM
Compound: Cc1ccccc1N1CCN(C(=O)C2CN(C(=O)C3CC3)Cc3cc(Cl)ccc32)CC1 (single isomer, unassigned; (-))

IC50 [2]: 0.01 µM
Ki [1]: 0.0033 µM
Compound: Cc1ccccc1N1CCN(C(=O)N2CN(C(=O)C3CC3)Cc3cc(Cl)ccc32)CC1

IC50 [2]: 1.4 µM
Ki [1]: 0.56 µM
Compound: Cc1ccccc1N1CCN(C(=O)N2CCNc3ccc(Cl)cc32)CC1

IC50 [2]: 1.4 µM
Ki [1]: 0.013 µM
Compound: CC(=O)N1CCN(C(=O)N2CCN(c3ccccc3C)CC2)c2ccc(Cl)cc21

IC50 [2]: 0.025 µM
Ki [1]: 0.0023 µM
Compound: Cc1ccccc1N1CCN(C(=O)N2C[C@H](C(=O)C3CCCC3)Cc3cc(Cl)ccc32)CC1

microsomal CLint at 1 µM [3]: 235 µL/min/mg
Papp A→B at 1 µM [4]: 100 nm/s
IC50 [2]: 0.0024 µM
Ki [1]: 0.0006 µM
microsomal CLint at 1 µM [5]: 170 µL/min/mg
microsomal CLint at 1 µM [6]: 72 µL/min/mg
Compound: Cc1ccccc1N1CCN(C(=O)N2C[C@@H](C(=O)C3CCCC3)Cc3cc(Cl)ccc32)CC1

IC50 [2]: 0.18 µM
Ki [1]: 0.005 µM
Compound: Cc1ccccc1N1CCN(C(=O)C2CN(C(=O)C3CC3)Cc3cc(Cl)ccc32)CC1 (stereo in doubt; (+)-44)

IC50 [2]: 0.88 µM
Ki [1]: 0.015 µM
Compound: Cc1ccccc1N1CCN(C(=O)N2CCc3cc(Cl)ccc32)CC1

IC50 [2]: 0.39 µM
Ki [1]: 0.005 µM
Compound: Cc1ccccc1N1CCN(C(=O)N2CCCCc3cc(Cl)ccc32)CC1

Ki [1]: 0.44 µM
inhibition ([7]; filed as antagonist): 62%
Compound: CC(=O)N1CCN(C(=O)N2CCN(c3ccccc3C)CC2)c2ccc(F)cc21

microsomal CLint at 1 µM [3]: 324 µL/min/mg
efflux ratio at 10 µM [8]: 0.7
IC50 [2]: 0.05 µM
Ki [1]: 0.006 µM
microsomal CLint at 1 µM [5]: 212 µL/min/mg
Papp A→B at 10 µM [9]: 390 nm/s
microsomal CLint at 1 µM [6]: 88 µL/min/mg
Compound: CC(=O)N1Cc2cc(Cl)ccc2N(C(=O)N2CCN(c3ccccc3C)CC2)C1

IC50 [2]: 0.2 µM
Ki [1]: 0.004 µM
Compound: Cc1ccccc1N1CCN(C(=O)N2CCCc3cc(Cl)ccc32)CC1

IC50 [2]: 0.011 µM
Ki [1]: 0.0026 µM
Compound: Cc1ccccc1N1CCN(C(=O)N2CN(C(=O)C(C)C)Cc3cc(Cl)ccc32)CC1

IC50 [2]: 0.085 µM
Ki [1]: 0.003 µM
Compound: Cc1ccccc1N1CCN(C(=O)N2CN(C)Cc3cc(Cl)ccc32)CC1

IC50 [2]: 0.035 µM
Ki [1]: 0.003 µM
Compound: Cc1ccccc1N1CCN(C(=O)N2CN(C(=O)c3ccccc3)Cc3cc(Cl)ccc32)CC1

IC50 [2]: 0.04 µM
Ki [1]: 0.003 µM
Compound: Cc1ccccc1N1CCN(C(=O)N2CNCc3cc(Cl)ccc32)CC1

IC50 [2]: 0.02 µM
Ki [1]: 0.0053 µM
Compound: Cc1ccccc1N1CCN(C(=O)N2CN(S(C)(=O)=O)Cc3cc(Cl)ccc32)CC1

IC50 [2]: 0.011 µM
Ki [1]: 0.001 µM
Compound: Cc1ccccc1N1CCN(C(=O)N2CN(C(=O)C3CCCC3)Cc3cc(Cl)ccc32)CC1

IC50 [2]: 0.035 µM
Ki [1]: 0.004 µM
Compound: Cc1ccccc1N1CCN(C(=O)N2CN(C(=O)CO)Cc3cc(Cl)ccc32)CC1

microsomal CLint at 1 µM [3]: 66 µL/min/mg
Papp A→B at 1 µM [4]: 170 nm/s
IC50 [2]: 0.08 µM
Ki [1]: 0.0041 µM
microsomal CLint at 1 µM [5]: 265 µL/min/mg
microsomal CLint at 1 µM [6]: 210 µL/min/mg
Compound: Cc1ccccc1N1CCN(C(=O)N2CCNc3cc(Cl)ccc32)CC1

Ki [1]: 0.025 µM
Compound: Cc1ccccc1N1CCN(C(=O)C2CN(C(=O)C3CC3)Cc3cc(Cl)ccc32)CC1 (racemic)

IC50 [2]: 0.3 µM
Ki [1]: 0.007 µM
Compound: Cc1ccccc1N1CCN(C(=O)N2CCN(C)c3cc(Cl)ccc32)CC1

Ki [1]: 0.005 µM
Compound: Cc1ccccc1N1CCN(C(=O)N2CN(C(=O)C3CCCCC3)Cc3cc(Cl)ccc32)CC1

IC50 [2]: 0.135 µM
Ki [1]: 0.005 µM
Compound: Cc1ccccc1N1CCN(C(=O)C2CN(C(=O)C(C)C)Cc3cc(Cl)ccc32)CC1 (racemic)
